The IC50 is the midpoint of a concentration-inhibition curve. A word on the Ki: it is a dissociation constant, usually derived from enzyme kinetics or from competition with a known ligand. A low value points to higher affinity.

Structures can show the parent of a compound that is named as a salt.

In data set [1] the target is T1, CYP2C19 (Homo sapiens, UniProt P33261). In words: Vivid CYP450 fluorescence assay, reversible inhibition.
Data set [2] concerns the target T2, CYP3A5 (Homo sapiens, UniProt P20815). Described as above.
Data set [3] deals with T3, CYP2J2 (Homo sapiens, UniProt P51589).
T3 sequence (P51589 1-502): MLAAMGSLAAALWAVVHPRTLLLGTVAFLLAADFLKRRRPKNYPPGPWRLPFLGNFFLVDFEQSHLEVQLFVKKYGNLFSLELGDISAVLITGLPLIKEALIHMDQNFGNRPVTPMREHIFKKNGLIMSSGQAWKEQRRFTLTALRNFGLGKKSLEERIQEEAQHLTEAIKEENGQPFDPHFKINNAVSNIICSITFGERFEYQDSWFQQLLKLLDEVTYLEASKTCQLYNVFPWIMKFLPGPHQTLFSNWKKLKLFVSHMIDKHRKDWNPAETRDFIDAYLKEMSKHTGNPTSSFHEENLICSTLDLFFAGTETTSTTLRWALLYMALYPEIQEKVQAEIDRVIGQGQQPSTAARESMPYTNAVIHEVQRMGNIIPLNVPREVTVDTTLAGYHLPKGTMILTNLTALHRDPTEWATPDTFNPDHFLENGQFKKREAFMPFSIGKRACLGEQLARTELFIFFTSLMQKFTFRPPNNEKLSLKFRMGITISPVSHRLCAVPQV
The data set is described as above.

For data set [4] the following is noted: from 36.1 to 59.2 g of khat chewed, mean ± SD; cited from earlier work.
For data set [5] the following is noted: cited from earlier work.
The target in data set [6] is T4, CYP2E1 (Homo sapiens, UniProt P05181). Kind of data set: Vivid CYP450 fluorescence assay, reversible inhibition.
Data set [7] has as its target T5, CYP2B6 (Homo sapiens, UniProt P20813).
T5 sequence (P20813 1-491): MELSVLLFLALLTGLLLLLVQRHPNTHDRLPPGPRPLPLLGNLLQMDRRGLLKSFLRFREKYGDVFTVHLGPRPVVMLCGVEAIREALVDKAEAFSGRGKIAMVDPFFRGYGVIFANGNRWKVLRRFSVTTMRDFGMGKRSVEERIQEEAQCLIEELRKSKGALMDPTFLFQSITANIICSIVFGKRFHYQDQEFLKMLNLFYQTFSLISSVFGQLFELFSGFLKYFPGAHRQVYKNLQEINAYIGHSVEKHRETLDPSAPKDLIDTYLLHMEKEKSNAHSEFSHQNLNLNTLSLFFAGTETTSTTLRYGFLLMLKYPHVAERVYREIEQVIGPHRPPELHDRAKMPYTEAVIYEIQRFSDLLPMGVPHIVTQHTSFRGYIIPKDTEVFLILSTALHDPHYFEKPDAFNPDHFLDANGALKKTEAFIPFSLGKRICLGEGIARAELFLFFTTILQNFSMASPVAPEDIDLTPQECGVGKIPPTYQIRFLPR
Described as above.

Data set [8] deals with T6, CYP2A6 (Homo sapiens, UniProt P11509).
T6 sequence (P11509 1-494): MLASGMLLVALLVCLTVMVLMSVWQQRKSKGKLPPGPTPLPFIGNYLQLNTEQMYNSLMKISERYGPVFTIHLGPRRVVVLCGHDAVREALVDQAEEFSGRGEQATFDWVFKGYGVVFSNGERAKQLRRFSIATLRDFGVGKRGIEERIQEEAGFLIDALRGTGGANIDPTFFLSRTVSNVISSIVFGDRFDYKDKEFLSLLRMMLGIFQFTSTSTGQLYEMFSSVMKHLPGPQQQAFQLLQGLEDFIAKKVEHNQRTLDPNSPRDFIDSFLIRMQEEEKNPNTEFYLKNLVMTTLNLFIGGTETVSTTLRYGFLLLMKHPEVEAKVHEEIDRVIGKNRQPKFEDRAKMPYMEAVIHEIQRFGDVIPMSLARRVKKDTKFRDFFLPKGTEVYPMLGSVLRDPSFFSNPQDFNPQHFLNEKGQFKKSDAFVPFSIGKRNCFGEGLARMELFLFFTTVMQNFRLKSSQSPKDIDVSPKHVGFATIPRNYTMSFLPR
The description is as above.

The test system of the next data set is CYP2D6. The conditions noted are these: human CYP2D6, in vitro; cited from earlier work.
In data set [9] the target is T7, CYP1A2 (Homo sapiens, UniProt P05177).
T7 sequence (P05177 2-516 limits assumed): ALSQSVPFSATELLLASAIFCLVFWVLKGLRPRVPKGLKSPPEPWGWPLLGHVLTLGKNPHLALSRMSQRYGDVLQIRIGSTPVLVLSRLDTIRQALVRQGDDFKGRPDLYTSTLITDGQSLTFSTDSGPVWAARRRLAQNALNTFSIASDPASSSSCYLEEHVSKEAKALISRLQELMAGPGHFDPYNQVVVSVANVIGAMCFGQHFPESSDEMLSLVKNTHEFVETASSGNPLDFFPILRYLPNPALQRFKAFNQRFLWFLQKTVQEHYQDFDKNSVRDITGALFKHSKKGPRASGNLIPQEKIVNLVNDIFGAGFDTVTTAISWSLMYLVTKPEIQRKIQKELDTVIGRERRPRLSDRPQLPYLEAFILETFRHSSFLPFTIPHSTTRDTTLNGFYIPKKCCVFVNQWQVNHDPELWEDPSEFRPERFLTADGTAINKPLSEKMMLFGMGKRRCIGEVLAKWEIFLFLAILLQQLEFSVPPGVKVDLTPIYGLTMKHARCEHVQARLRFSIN
Kind of data set: Vivid CYP450 fluorescence assay, reversible inhibition.

The next data set concerns CYP2C9. The conditions noted are these: human CYP2C9, in vitro; cited from earlier work.
Data set [10] concerns CYP2C8. In words: Vivid CYP450 fluorescence assay, reversible inhibition. To be noted: CYP2C8, substrate DBOMF, cathinone 0 to 1000 µM.
For data set [11] the following is noted: cited from earlier work. This is another data set of the same source.
Another data set concerns CYP3A4. The conditions noted are these: human CYP3A4, in vitro; cited from earlier work.
The target in data set [12] is T6, CYP2A6. Kind of data set: Time-dependent inhibition (IC50 shift, NADPH pre-incubation). Also noted: purchased Life Technologies. The data set is classed as biochemical. As to the method: (§1) The procedure followed was similar to that used for screening of CYP reversible inhibition as mentioned above but with slight modifications. The master premix was added with NADP^+ to produce NADPH before the pre-incubation. The mixture was incubated for 30 min with shaking under similar range of concentrations of cathinone as mentioned above for IC50 determination. […] The IC50 shift was derived by calculating ratios of IC50 obtained from pre-incubation with and without NADPH. An IC50 shift ratio of more than 2 signifies irreversible time-dependent inhibition.

Data set [13] deals with T5, CYP2B6. The description is as above. The format is biochemical. Details: purchased Life Technologies. As to the method:
as §1

Data set [14] addresses T4, CYP2E1. Described as above. The format is biochemical. Also noted: purchased Life Technologies. As to the method:
as §1

Data set [15] concerns the target T2, CYP3A5. The description is as above. The format is biochemical. Details: purchased Life Technologies. As to the method:
as §1

For data set [16], the target named is T3, CYP2J2. The data set is described as above. The format is biochemical. Details: purchased Life Technologies. How it is done: as §1
In data set [17] the target is T7, CYP1A2. The description is as above. Details: purchased Life Technologies. The data set is classed as biochemical. How it is done: as §1
For data set [18], the target named is T1, CYP2C19. The data set is described as above. The format is biochemical. Also noted: purchased Life Technologies. How it is done: as §1
In data set [19] the test system is T8, CYP2C8.
T8 construct: purchased Life Technologies
The description is as above. The format is biochemical, human. To be noted: CYP2C8 (stated for all 8 CYPs). As to the method:
as §1

T2 sequence (P20815 whole entry): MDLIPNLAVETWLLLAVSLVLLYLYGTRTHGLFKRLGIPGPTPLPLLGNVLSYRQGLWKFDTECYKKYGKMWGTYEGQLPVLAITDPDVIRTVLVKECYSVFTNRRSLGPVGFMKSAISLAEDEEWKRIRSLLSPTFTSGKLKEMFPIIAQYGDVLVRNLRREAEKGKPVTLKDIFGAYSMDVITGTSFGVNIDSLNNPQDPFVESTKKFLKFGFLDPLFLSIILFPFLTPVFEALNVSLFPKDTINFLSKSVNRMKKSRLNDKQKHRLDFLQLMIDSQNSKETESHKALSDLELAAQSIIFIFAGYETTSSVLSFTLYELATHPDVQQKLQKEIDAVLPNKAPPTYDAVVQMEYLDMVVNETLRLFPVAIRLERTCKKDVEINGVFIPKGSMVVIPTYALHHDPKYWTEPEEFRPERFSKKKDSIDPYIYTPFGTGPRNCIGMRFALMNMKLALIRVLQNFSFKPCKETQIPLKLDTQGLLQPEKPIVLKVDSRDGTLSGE
T1 sequence (P33261 whole entry): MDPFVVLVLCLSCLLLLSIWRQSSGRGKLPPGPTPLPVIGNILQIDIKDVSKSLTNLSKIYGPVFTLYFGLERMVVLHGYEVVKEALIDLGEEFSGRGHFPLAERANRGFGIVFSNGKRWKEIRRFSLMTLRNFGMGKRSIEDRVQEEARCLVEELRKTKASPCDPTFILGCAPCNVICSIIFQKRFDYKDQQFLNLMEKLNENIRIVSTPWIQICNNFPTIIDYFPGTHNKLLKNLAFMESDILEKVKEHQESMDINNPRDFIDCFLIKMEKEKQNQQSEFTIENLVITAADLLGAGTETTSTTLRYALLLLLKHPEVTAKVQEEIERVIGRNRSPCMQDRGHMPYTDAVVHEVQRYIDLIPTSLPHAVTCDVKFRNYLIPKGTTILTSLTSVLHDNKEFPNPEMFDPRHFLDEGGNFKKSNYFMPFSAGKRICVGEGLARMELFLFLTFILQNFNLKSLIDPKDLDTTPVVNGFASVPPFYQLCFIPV
T4 sequence (P05181 whole entry): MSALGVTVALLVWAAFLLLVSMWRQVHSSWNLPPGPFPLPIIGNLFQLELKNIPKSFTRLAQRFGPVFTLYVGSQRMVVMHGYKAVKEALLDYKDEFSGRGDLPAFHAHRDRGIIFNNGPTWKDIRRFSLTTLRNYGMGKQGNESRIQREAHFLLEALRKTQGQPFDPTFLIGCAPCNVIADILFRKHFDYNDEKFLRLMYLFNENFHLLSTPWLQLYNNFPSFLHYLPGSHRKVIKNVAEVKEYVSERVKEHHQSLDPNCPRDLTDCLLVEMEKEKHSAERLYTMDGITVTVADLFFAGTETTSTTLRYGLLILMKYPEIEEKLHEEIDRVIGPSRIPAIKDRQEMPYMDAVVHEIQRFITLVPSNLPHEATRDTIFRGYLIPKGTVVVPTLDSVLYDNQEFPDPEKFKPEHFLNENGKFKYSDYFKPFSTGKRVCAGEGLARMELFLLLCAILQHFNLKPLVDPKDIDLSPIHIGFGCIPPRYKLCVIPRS

`C[C@H](N)C(=O)c1ccccc1` [Cathinone, (S)− 2-Amino-1-phenyl-1-propanone.hydrochloride]: the IC50 against CYP2C19 [1] turned out to be 118 µM; on CYP3A5 [2], 19.9 µM; on CYP2J2 [3] it was 163 µM; against CYP2E1 [6] it was 568 µM; against CYP2B6 [7], 165 µM; against CYP2A6 [8], 11.5 µM. Besides, the IC50 on CYP1A2 [9] came out at 17 µM; on CYP2A6 [12], 13.7 µM; on CYP2B6 [13], 110 µM; at CYP2E1 [14] it was 71.3 µM; on CYP3A5 [15], 11.1 µM; at CYP2J2 [16], 194 µM. Also, the IC50 at CYP1A2 [17] is 75.4 µM; on CYP2C19 [18], 220 µM. For the same compound, the figures for the Ki on CYP3A5 [2], at CYP2A6 [8] and on CYP1A2 [9] were 23.6 µM, 13.8 µM and 57.1 µM, respectively. Also, the figures for the mode of inhibition result on CYP3A5 [2] (CYP3A5), at CYP2A6 [8] (CYP2A6) and on CYP1A2 [9] (CYP1A2) were “noncompetitive”, “un-competitive” and “competitive”, respectively. In addition, in [4], the “Cmax (maximal plasma concentration)” value was 58.9 ± 18.8 ng/mL. The absorbed in data set [4] is recorded as 59 ± 21%. In addition, the plasma level result in data set [5] (at 0.5 and 7.5 h after the start of khat chewing) is given as “approximately 20 ng/ml”. Also, the “maximum plasma levels (mean)” value in [5] (khat chewing) was 83 ng/mL. The inhibitory effects entry in the data set with CYP2D6, in the data set on CYP2C9 and in the data set with CYP3A4 was “negligible inhibitory effects” throughout. Besides, the “inhibition of CYP2C8” value in the data set with CYP2C8 [10] is “no significant inhibition”. Besides, the “area under the plasma concentration – time curve (AUC) from 0 to 9 h” value in [11] is given as 415 ± 207 ng/ml per hour. Moreover, the “time of maximal plasma concentration” value in data set [11] was 127 ± 30 min. Also, the maximal plasma concentration in data set [11] (khat leaves equivalent to 0.8 mg cathinone/kg body weight) was 127 ± 53 ng/mL. The terminal elimination half-life in data set [11] (plasma) was 4.33 ± 1.7 h. Besides, the IC50 shift at 60 min at CYP2A6 [12] (human, pH 8, probe Vivid CC (3-cyanocoumarin), CYP2A6, shift > 2 = significant TDI) came to 0.84. Moreover, in the data set on CYP2C8 [19], the “time dependent inhibition (TDI) potency” value is given as “no significant TDI potency”.

As for `C[C@H](N)[C@@H](O)c1ccccc1` [cathine, S,S-(+)-norpseudoephedrine], in data set [4], the “Cmax (maximal plasma concentration)” value was 71.2 ± 13.9 ng/mL and the absorbed is recorded as 84 ± 6%.

Values taken from PMC9742833.
